Laboratory results reported in ChEMBL document CHEMBL3301361, “Experimental in vitro DMPK and physicochemical data on a set of publicly disclosed compounds”.
In brackets after ≈: the same amount, converted by molar mass.

What was measured:
in vitro [1] = settings: hepatocytes
in vitro [2] = settings: human, hepatocytes
in vitro [3] = settings: human
physchem [4] = settings: pH 7.4 buffer
in vitro [5] = settings: human, plasma
in vitro [6] = settings: SD, HW or BN, rat, plasma
physchem [7] = settings: octan-1-ol/water

| Structure (SMILES) | hepatocyte CLint (in vitro [1]) | hepatocyte CLint (in vitro [2]) | microsomal CLint (in vitro [3]; liver microsomes) | solubility thermodynamic (physchem [4]) | fraction unbound at 5 h (in vitro [5]; PPB) | fraction unbound at 5 h (in vitro [6]) | logD (physchem [7]; pH 7.4, LogD7.4) | microsomal CLint (in vitro [3]; microsomes) | logD (physchem [7]; pH 7.4) | fraction unbound at 5 h (in vitro [5]) |
| --- | --- | --- | --- | --- | --- | --- | --- | --- | --- | --- |
| O=C(O[C@H]1C[N+]2(CCCOc3ccccc3)CCC1CC2)C(O)(c1cccs1)c1cccs1 | 80 µL/min/1e6 cells | 64 µL/min/1e6 cells | 140 µL/min/mg | 339 µM |  |  |  |  |  |  |
| Cc1ccccc1-n1c(Cn2nc(-c3ccc(O)c(F)c3)c3c(N)ncnc32)nc2cccc(C)c2c1=O | 44.7 µL/min/1e6 cells | 39.8 µL/min/1e6 cells |  | 25.1 µM (≈ 12.7 µg/mL) | 0.02 | 0.0313 | 3.55 |  |  |  |
| CN1CCN(c2nc3ccccc3cc2Cn2nc(-c3ccc4nc(N)sc4c3)c3c(N)ncnc32)CC1 | 81 µL/min/1e6 cells | 7.59 µL/min/1e6 cells | 72 µL/min/mg | 100 µM (≈ 52.3 µg/mL) |  |  | 3.09 |  |  |  |
| O=C(Nc1nc2ccccc2s1)c1ccccc1 | 64.6 µL/min/1e6 cells | 77.6 µL/min/1e6 cells |  |  |  |  |  | > 150 µL/min/mg |  |  |
| O=C(O)COc1ccc(C(F)(F)F)cc1CN1CCN(S(=O)(=O)c2ccccc2)CC1 | < 3 µL/min/1e6 cells | < 3 µL/min/1e6 cells | 6.33 µL/min/mg |  |  |  |  |  |  |  |
| C[C@H]1CN(Cc2cc(Cl)ccc2OCC(=O)O)CCN1C(=O)Cc1ccc(F)cc1 | < 3 µL/min/1e6 cells | < 3 µL/min/1e6 cells |  |  |  | 0.0928 |  | < 3 µL/min/mg |  | 0.0287 |
| C[C@H](Oc1ccc(Cl)cc1CN1CCN(C(=O)Cc2ccc(Cl)cc2)[C@@H](C)C1)C(=O)O | < 3 µL/min/1e6 cells | 4.7 µL/min/1e6 cells | < 3 µL/min/mg |  |  |  |  |  |  | 0.0256 |
| O=c1[nH]c2c(O)ccc([C@@H](O)CNCCSCCCNCCc3ccccc3)c2s1 | 9 µL/min/1e6 cells | < 3 µL/min/1e6 cells | 5 µL/min/mg | 1150 µM (≈ 514 µg/mL) |  |  | 0.12 |  |  |  |
| N#CCC(CNc1ncc(C(F)(F)F)cc1Cl)OC(=O)c1c(F)cccc1F (stereo unspecified) | > 150 µL/min/1e6 cells | > 150 µL/min/1e6 cells | > 150 µL/min/mg |  |  |  |  |  |  |  |
| Cc1nn(-c2ccc(F)cc2)c(NS(=O)(=O)c2ccc(C#N)cc2)c1C(=O)N[C@@H](C)C(C)(C)C | 6 µL/min/1e6 cells | < 3 µL/min/1e6 cells |  |  | 0.0437 | 0.0801 | 0.45 |  |  |  |
| O=c1[nH]c2c(O)ccc([C@@H](O)CNCCc3cccc(CNCCc4c(Cl)cccc4Cl)c3)c2s1 | 78 µL/min/1e6 cells | 5.17 µL/min/1e6 cells | 63 µL/min/mg |  |  |  | 3.15 |  |  |  |
| O=C(Nc1cc(-c2ccnc(Nc3ccccc3)c2)ccn1)C1CCOCC1 | > 150 µL/min/1e6 cells | 16.2 µL/min/1e6 cells | 12.6 µL/min/mg |  |  |  | 3.7 |  |  |  |
| O=C1COC2(CCN(S(=O)(=O)c3ccc(-c4ccc5cnccc5c4)cc3)CC2)CN1C1CC1 | > 150 µL/min/1e6 cells | > 150 µL/min/1e6 cells | 115 µL/min/mg | 2.2 µM (≈ 1.05 µg/mL) | 0.0018 |  | 3.32 |  |  |  |

Now from value to molecule, other results behind:

| hepatocyte CLint (in vitro [1]) | hepatocyte CLint (in vitro [2]) | microsomal CLint (in vitro [3]; liver microsomes) | solubility thermodynamic (physchem [4]) | fraction unbound at 5 h (in vitro [5]; PPB) | fraction unbound at 5 h (in vitro [6]) | logD (physchem [7]; pH 7.4, LogD7.4) | microsomal CLint (in vitro [3]; microsomes) | logD (physchem [7]; pH 7.4) | Structure (SMILES) | fraction unbound at 5 h (in vitro [5]) |
| --- | --- | --- | --- | --- | --- | --- | --- | --- | --- | --- |
| 55 µL/min/1e6 cells | 13.8 µL/min/1e6 cells | 27.5 µL/min/mg |  |  | 0.0581 |  |  | 3.3 | NC(=O)NC(=O)C(Nc1ccc2c(c1)CCC2)c1ccccc1 (stereo unspecified) | 0.03 |
| > 150 µL/min/1e6 cells | 129 µL/min/1e6 cells | < 3 µL/min/mg |  |  |  | 1.67 |  |  | O=C(O)CCc1ccc(OCc2cccc(Br)c2)cc1 |  |
| 28.2 µL/min/1e6 cells | 10.7 µL/min/1e6 cells | 14.4 µL/min/mg |  |  | 0.19 |  |  |  | Cc1cc(F)ccc1-n1nc(C(F)(F)F)cc1-c1ccc2c(c1)NC(=O)CO2 |  |
| > 150 µL/min/1e6 cells | 40.7 µL/min/1e6 cells | 105 µL/min/mg |  |  |  | 2.8 |  |  | CCOC(=O)/C=C/[C@H](C[C@@H]1CCNC1=O)NC(=O)[C@@H](CC(=O)[C@@H](NC(=O)c1cc(C)on1)C(C)C)Cc1ccc(F)cc1 |  |
| < 3 µL/min/1e6 cells | 4.79 µL/min/1e6 cells |  | 6.6 µM (≈ 3.3 µg/mL) | 0.329 | 0.232 | 1.37 | 5 µL/min/mg |  | CC(C)(C)NS(=O)(=O)c1cncc(-c2ccc3nc(NC(=O)NCC(=O)N4CCCC4)nn3c2)c1 |  |
| 5 µL/min/1e6 cells | 3.39 µL/min/1e6 cells | 5 µL/min/mg | 53.7 µM (≈ 27.7 µg/mL) |  | 0.535 | 0.96 |  |  | CC(C)(C)NS(=O)(=O)c1cncc(-c2ccc3nc(NC(=O)NCC(=O)N4CCOCC4)nn3c2)c1 |  |
| 15 µL/min/1e6 cells | < 3 µL/min/1e6 cells |  |  | 0.197 |  | 2.56 |  |  | N#Cc1ccc(OC2CCN(C[C@H](O)CNC(=O)c3c[nH]c(=O)c4ccccc34)CC2)cc1Cl |  |
| 28 µL/min/1e6 cells | 16 µL/min/1e6 cells |  |  | 0.0156 | 0.0052 |  | 58.5 µL/min/mg |  | COc1cccc2c1c(NS(=O)(=O)c1ccc(Cl)s1)nn2Cc1cccc(CNC(=O)[C@H]2COCCN2)c1 |  |
| 19 µL/min/1e6 cells | 5.75 µL/min/1e6 cells |  |  |  |  | 3.12 | 8.13 µL/min/mg |  | C[C@H](CO)Nc1nc(SCc2ccccc2F)nc2nc(N)sc12 |  |
